Results from US11013232B2, “Hydrotesting and mothballing composition and method of using combination products for multifunctional water treatment” (priority 2014, dated 2021).

Columns and labels:
[1] = system: General Heterotrophic Bacteria (GHB); test: Most Probable Number (MPN) bacterial kill efficacy, GHB; format: cell-based, mixed consortia isolated from seawater; details: first MPN set; for GHB per mL: formulation with ammonium bisulfide, 500 ppm active biocide; for log reduction of planktonic GHB: exposure time of 24 hours
Method: (§1) The Most Probably Number technique using a bacterial enumeration technique was performed, as described in NACE International Standard TMP 194-2004. Complex mixed consortia were isolated from seawater and subjected to the chemicals being tested. All chemicals were applied at the same active concentration. Surviving cells were assayed after exposure periods of 1, 7 and 28 days to the numbers compared with a control which received no treatments. The bottle tests were carried out using two mixed consortia—Sulfate Reducing Bacteria (SRB) and General Heterotrophic Bacteria (GHB) that also measured Acid Producing Bacteria (APB) enriched from seawater. Aliquots of the water (1 mL) were inoculated into SRB culture medium and GHB culture medium (Phenol Red Dextrose broth) respectively and sub-cultured twice. The cultures used in the tests were incubated at 30° C. for five days; these were then used to supplement seawater to achieve 10^3 to 10^4 SRB cells per mL. For the trial one control bottle and four test bottles were set up. The chemicals were added to the appropriate test bottles to give the final concentrations of each product as supplied. All chemicals were added so that 500 ppm of active biocide was present in each test. The control bottle contained seawater only with no added chemical.
(§2) At each time point, (one, seven and twenty-eight days), a sample was removed from each test bottle and the control bottle and used to inoculate the MPN vials. Bacterial counts were performed using the triplicate Most Probable Number method (triplicate MPNs). The inoculated MPN vials were incubated at 30° C. for 7 days for GHB and APB and 28 days for SRB. Results have been reported as cells per mL. […]

[2] = system: Acid Producing Bacteria (APB); test: Most Probable Number (MPN) bacterial kill efficacy, APB; format: cell-based, mixed consortia isolated from seawater; details: first MPN set; for APB per mL: formulation with ammonium bisulfide, 500 ppm active biocide; for log reduction of APB numbers: exposure time of 24 hours
Method: as §1, §2

[3] = system: Sulfate Reducing Bacteria (SRB); test: Most Probable Number (MPN) bacterial kill efficacy, SRB; format: cell-based, mixed consortia isolated from seawater; details: first MPN set; for SRB per mL: formulation with ammonium bisulfide, 500 ppm active biocide; for log reduction of planktonic SRB: exposure time of 24 hours
Method: as §1, §2

[4] = system: 5 species of bacteria in a simulated marine environment; test: Molecular technique biocidal properties (qPCR of 16s rDNA); format: cell-based; details: for 7 day DNA (copies) / 14 day DNA (copies) / 21 day DNA (copies): dose rate 500 ppm
Method: Molecular techniques were performed on the best performing (Formulation 3) commercial product and the embodiments of the invention Formulation 1 and Formulation 2. This aim of the study was to investigate the efficiency of the biocides on inhibiting 5 species of bacteria in a simulated marine environment. This study was conducted over a 21 day period and involved several marine species of bacteria which have all been previously linked with attributing to corrosion. […] A control was used in the testing and glutaraldehyde was selected for this role.
For each species 3 individual inoculums for each replicate were grown from an isolated single colony picked from agar plates. The species used were Desulfovibrio desulfricans (SRB), Shewanella putrefaciens (IRB), Thiobacillus thioparus (SOB), Pseudomonas aeruginosa (biofilm) and Methanolibacter arachidis (methanogens). Following 24 hours of incubation on an orbital shaker, cells were centrifuged and the pelleted cells washed with phosphate buffered saline (PBS). Washed cells were then suspended in PBS and measured to a set optical density via UV spectrometry at 600 nm. Each species was then used to inoculate cultures to give a final starter concentration of 0.01 at 600 nm. Each treatment was conducted in triplicate with each replicate being started at alternative time periods to reduce culture bias and human error. Three negative controls and three positive controls were established for each temperature under study.
The trials were conducted in 125 mL Erlenmeyer flasks containing 75 mL of marine broth, which were subsequently autoclaved for 20 min at 121° C. All bottles were incubated at either 4° C. or 25° C. on an orbital shaking platform at 150 rpm. Triplicate biocide treatments were established at each temperature at concentrations of 500, 750 and 1000 ppm. At each weekly interval, 2 mL samples were collected at 7, 14 and 21 days from each bottle. These were subjected to a co-extraction of DNA which was measured with qPCR. The gene target in this study was 16s rDNA a conserved gene present in all bacteria and Achaea.

Row | Structure (SMILES) | GHB per mL ([1]; 24 h exposure) | GHB per mL ([1]; 7 d exposure) | GHB per mL ([1]; 28 d exposure) | log reduction of planktonic GHB [1] | APB per mL ([2]; 24 h exposure) | APB per mL ([2]; 7 d exposure) | APB per mL ([2]; 28 d exposure) | log reduction of APB numbers [2] | SRB per mL ([3]; 24 h exposure) | SRB per mL ([3]; 7 d exposure) | SRB per mL ([3]; 28 d exposure) | log reduction of planktonic SRB [3] | also measured
1 | CC1(C)C(=O)N(CO)C(=O)N1CO [DMDM hydantoin, 1,3-Bis(hydroxymethyl)-5,5-dimethylimidazoline-2,4-dione] | 9.5E+03 cells per mL | 9.5E+05 cells per mL | 2.5E+05 cells per mL | 1 log | 4.5E+02 cells per mL | 2.5E+02 cells per mL | 9.5E+04 cells per mL | no effect | 9.5E+04 cells per mL | 9.5E+02 cells per mL | 4.5E+06 cells per mL | no effect | 
2 | CN1CSC(=S)N(C)C1 [Dazomat, Tetrahydro-3,5-dimethyl-2H-1,3,5-thiadiazine-2-thione] | 4.5E+02 cells per mL | 4.5E+03 cells per mL | 2.5E+05 cells per mL | 2.5 log | 2.5E+02 cells per mL | 2.5E+02 cells per mL | 4.5E+02 cells per mL | 0.5 log | 2.5E+04 cells per mL | 2.0E+02 cells per mL | 1.0E+00 cells per mL | did not result in a significant reduction | 
3 | O=CCCCC=O [Glutaraldehyde, Pentane-1,5-dial] |  |  |  |  |  |  |  |  |  |  |  |  | fold increase in growth compared to the highest level seen in the other biocides ([4]; 4° C., 500 ppm): 15.8 fold; fold increase in copy number compared to the highest count in the invention formulation biocide flasks ([4]; 25° C., 500 ppm): 670 fold; 7 day DNA (copies) ([4]; 4° C.): 2.60E+04 copies; 14 day DNA (copies) ([4]; 4° C.): 1.11E+08 copies; 21 day DNA (copies) ([4]; 4° C.): 7.22E+07 copies; 7 day DNA (copies) ([4]; 25° C.): 8.85E+04 copies; 14 day DNA (copies) ([4]; 25° C.): 1.00E+03 copies; 21 day DNA (copies) ([4]; 25° C.): 2.51E+10 copies
4 | CC1CN(CN2COC(C)C2)CO1 (stereo not shown) [MBMO, N, N′-Methylene bis(5-methyloxazolidine)] | 9.5E+03 cells per mL | 4.5E+03 cells per mL | 2.5E+02 cells per mL | 1 log | 7.5E+02 cells per mL | 7.5E+02 cells per mL | 4.5E+01 cells per mL |  | 9.5E+03 cells per mL | 4.0E+01 cells per mL | 1.0E+00 cells per mL |  | further log reduction of GHB numbers ([1]; after 28 days): 2 log
